Measured values from patent publication US20140056983A1, “FOOD ADDITIVE FOR RUMINANTS BASED ON EUGENOL AND CINNAMALDEHYDE” (priority 2005, published 2014).

How the values were obtained:
[1] = test system: liquid taken from the rumen; assay: Study 1: in vitro digestibility of dehydrated alfalfa in rumen liquid (Tilley and Terry method); set-up: species or system cows; conditions: for ADFd (digestibility of acid digestible fiber) / DMd (digestibility of the dry matter) / NDFd (digestibility of neutral digestible fiber): dehydrated alfalfa, 30 ppm additive in total (mixture 15 + 15 ppm), 39° C., 24 hours; for digestibility of the fibers of the dehydrated alfalfa (in words): versus no additive
Protocol: During this first study, the effects of a mixture according to the invention on the digestibility of the feed of the ruminant animals was analyzed, by conducting an “in vitro” study in accordance with the Tilley and Terry method (1963). For a more complete description of this method, please refer to the following publication: […]. and Terry, R. A. 1963. A two stage technique for the in vitro digestion of forage crops. J. Brit. Grassland Soc. 18-104-111. For incubation the following was used: • a) The basic feed made up of 100% dehydrated alfalfa, supplemented by an equal amount of Peugenol, or of cinnamaldehyde, or of a mixture of the two components; • b) MacDougall buffer; • c) Liquid taken from the empty rumen of four animals permanently equipped with a nozzle on the level of the rumen and nourished with the basic feed. […] The ruminated liquid originated in fistulated cows during the first 100 days of lactation. The state of the first container was preserved, without making any addition. […] In the third container, 30 ppm cinnamaldehyde was added. In the fourth container, 15 ppm of eugenol and 15 ppm of cinnamaldehyde was added. The containers were incubated at 39° C. during 24 hours. The DacronTM sachets were removed, washed and dried at 55° C. Various digestibility parameters were determined according to the Van Soest et al. method (1991). For a more complete description of this method, please refer to the following publication: Van Soest, P. J. Robertson. J. D., and Lewis, B. A. 1991. Methods for dietary fibre, neutral detergent fibre and non-starch polysaccharides in relation to animal nutrition. J. Dairy Se. 74: 3583-3597.

[2] = test system: Holstein-Freisan milk cows; assay: Study 2: food consumption and dairy production in milk cows, Latin Square 4x4; assay type: in vivo
Protocol: In the second study, the effect of a variation in the relative proportions of eugenol and cinnamaldehyde in a food additive on the production of meat and the dairy production was tested.
In this test, sixteen Holstein-Freisan milk cows, in their eighth week of lactation, were divided for Latin type Square 4×4 testing. Each period of treatment lasted two weeks.
The first group received a food without an additive.
The second group received a food containing 30 ppm cinnamaldehyde.
The third group received a food containing a mixture of 30 ppm cinnamaldehyde and 15 ppm of eugenol.
The fourth group received a food containing a mixture of 30 ppm eugenol and 16 ppm of cinnamaldehyde.
During each treatment period, the food consumption and the dairy production were measured.

[3] = test system: rumen fluid; assay: Study 5: in vitro feed digestibility, dose of the mixture versus monensin (Tilley and Terry method); set-up: species or system cows; conditions: after 24 hours; mixture 28% eugenol and 17% cinnamaldehyde at 3, 30, 300 mg per animal/per day; monensin as reference
Protocol: In the table above, the characteristics of each food are expressed as a percentage of dry matter, total protein, neutral digestible fiber (NDF), acid digestible fiber (ADF), for the oats, alfalfa, a complete feed (TMR). […] The effects of a mixture according to the invention on the feed digestibility according to the Tilley and Terry method were analyzed. […] Control bottles were also prepared, containing ethanol, to avoid the parasitic effects of fermentation due to ethanol. […] The results were analyzed by using mixed SAS procedures. The results were compared to the feed containing the monensin. The results from the feed containing monensin were considered a reference result. […] Thus, this fable reflects the digestibility of neutral digestible fiber (NDFd), digestibility of acid digestible fiber (ADFd), and dry matter digestibility (DMd), after 24 hours.

[4] = milk cows, eighth week of lactation, two-week treatment periods, ppm in food

O=CC=Cc1ccccc1 [Cinnamaldehyde, cinnamaldehyde]
ADFd (digestibility of acid digestible fiber) [1]: 8.53% | DMd (digestibility of the dry matter) [1]: 39.06% | NDFd (digestibility of neutral digestible fiber) [1]: 4.83% | digestibility of the fibers of the dehydrated alfalfa (in words) [1]: does not improve | Food Consumption [2, 4]: 2.571b kg MS/animal/d | Milk Production [2, 4]: 37.23 l/animal/d | food consumption (in words) ([2]; versus no additive): reduction | milk production (in words) ([2]; versus no additive): reduction

C=CCc1ccc(O)c(OC)c1 [Eugenol, eugenol]
ADFd (digestibility of acid digestible fiber) [1]: 8.05% | DMd (digestibility of the dry matter) [1]: 40.02% | NDFd (digestibility of neutral digestible fiber) [1]: 5.63% | digestibility of the fibers of the dehydrated alfalfa (in words) [1]: does not improve

CC[C@@]1([C@@H]2O[C@@H]([C@H]3O[C@@](O)(CO)[C@H](C)C[C@@H]3C)C[C@@H]2C)CC[C@H]([C@]2(C)CC[C@]3(C[C@H](O)[C@@H](C)[C@@H]([C@@H](C)[C@@H](OC)[C@H](C)C(=O)O)O3)O2)O1 [MON, sodium-monensin]
ADFd (digestibility of acid digestible fiber) [3]: 24.38 | DMd (dry matter digestibility) [3]: 43.43 | NDFd (digestibility of neutral digestible fiber) [3]: 22.24
